# In the supplement of paper PMC10307832:
# Compound: COc1nc(N)nc2c1ncn2[C@@H]1O[C@H](CO)[C@@H](O)[C@@H]1O [Nelarabine] + O=C(CCCCCCC(=O)Nc1ccccc1)NO [Vorinostat] (partner 1 µM)
# Experiment: relative viability (nuclei count vs DMSO), 5 days (fraction); higher = more cells survive
# Conditions: first compound 0.01 µM
# Outline: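 The day after seeding in 1536-well plates, lung cancer cell lines were treated by pin tool with a single drug, or with a fixed anchor-drug dose together with five library-drug doses (not always all listed) in √10 steps. After 5 days, a combined fix-and-stain solution (final 0.05% Triton X-100, 1% formaldehyde, 1 ug/ml Hoechst) was added. Nuclei counted on 4× images gave relative viability as treated counts over vehicle counts, reported as the median of duplicate plates.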
row,Cell Line,relative viability
1,HCC-44,1.11
2,HCC-78,0.601
3,HCC-366,0.582
4,HCC-827,0.595
5,HOP-62,0.783
6,IA-LM,1.11
7,LC-2-ad,0.814
8,LCLC-103H,0.905
9,LK-2,0.242
10,LOU-NH91,0.993
11,LU99A,0.615
12,NCI-H358,0.852
13,NCI-H522,1.02
14,NCI-H727,1.24
15,NCI-H1395,0.757
16,NCI-H1793,1.05
17,NCI-H1944,0.669
18,NCI-H2170,1.09
19,NCI-H2342,0.933
20,SK-MES-1,1.36
21,SW 900,0.471

# Same assay, conditions: first compound 0.03162 µM
row,Cell Line,relative viability
1,201T,1.04
2,A-427,0.93
3,ABC-1,1.51
4,BEN,0.575
5,CAL-12T,0.78
6,COR-L23,0.416
7,COR-L 105,0.887
8,ChaGo-K-1,0.645
9,EKVX,0.667
10,EPLC-272H,0.411
11,H3255,0.786
12,HARA,0.543
13,HCC-15,0.905
14,HCC-44,1.02
15,HCC-78,0.475
16,HCC-366,0.343
17,HCC-827,0.748

row,Cell Line,relative viability
1,HOP-62,0.618
2,IA-LM,1
3,LC-2-ad,0.738
4,LCLC-103H,0.76
5,LK-2,0.256
6,LOU-NH91,0.814
7,LU99A,0.417
8,NCI-H358,1.02
9,NCI-H522,0.857
10,NCI-H727,1.17
11,NCI-H1395,0.706
12,NCI-H1648,0.761
13,NCI-H1944,0.549
14,NCI-H2170,0.835
15,NCI-H2342,0.753
16,SK-MES-1,1.12
17,SW 900,0.567

# Same assay, conditions: first compound 0.1 µM
row,Cell Line,relative viability
1,201T,0.999
2,A-427,0.895
3,ABC-1,1.22
4,BEN,0.592
5,CAL-12T,0.764
6,COR-L23,0.511
7,COR-L 105,0.952
8,ChaGo-K-1,0.723
9,EKVX,0.585
10,EPLC-272H,0.459
11,H3255,0.777
12,HARA,0.532
13,HCC-15,0.829
14,HCC-44,1.05
15,HCC-366,0.391
16,HCC-827,0.639
17,HOP-62,0.669

row,Cell Line,relative viability
1,IA-LM,0.854
2,LC-2-ad,0.67
3,LCLC-97TM1,0.464
4,LCLC-103H,0.795
5,LK-2,0.334
6,LOU-NH91,0.889
7,LU99A,0.579
8,NCI-H358,0.663
9,NCI-H522,0.683
10,NCI-H727,1.13
11,NCI-H1395,1.16
12,NCI-H1793,0.885
13,NCI-H1944,0.54
14,NCI-H2170,0.742
15,NCI-H2342,0.806
16,SK-MES-1,1.18
17,SW 900,0.795

# Same assay, conditions: first compound 0.3162 µM
row,Cell Line,relative viability
1,201T,1.03
2,A-427,0.854
3,ABC-1,1.07
4,BEN,0.609
5,CAL-12T,0.938
6,COR-L23,0.427
7,COR-L 105,1.12
8,ChaGo-K-1,0.741
9,EKVX,0.817
10,EPLC-272H,0.387
11,H3255,0.961
12,HARA,0.581
13,HCC-15,0.887
14,HCC-44,1.01
15,HCC-78,0.427
16,HCC-366,0.47
17,HCC-827,0.721
18,HOP-62,0.708

row,Cell Line,relative viability
1,IA-LM,1.11
2,LC-2-ad,0.721
3,LCLC-97TM1,0.819
4,LCLC-103H,0.856
5,LK-2,0.294
6,LOU-NH91,0.931
7,LU99A,0.467
8,NCI-H358,0.791
9,NCI-H522,0.867
10,NCI-H727,1.27
11,NCI-H1395,0.755
12,NCI-H1648,0.412
13,NCI-H1793,0.987
14,NCI-H1944,0.559
15,NCI-H2170,0.878
16,NCI-H2342,0.74
17,SK-MES-1,1.36
18,SW 900,0.628

# Same assay, conditions: first compound 1 µM
row,Cell Line,relative viability
1,201T,0.979
2,A-427,0.844
3,ABC-1,0.929
4,BEN,0.618
5,CAL-12T,0.997
6,COR-L23,0.456
7,COR-L 105,0.726
8,ChaGo-K-1,0.771
9,EKVX,0.788
10,EPLC-272H,0.385
11,H3255,0.8
12,HARA,0.544
13,HCC-15,0.973
14,HCC-44,1.07
15,HCC-78,0.556
16,HCC-366,0.339
17,HCC-827,0.64
18,HOP-62,0.638

row,Cell Line,relative viability
1,IA-LM,0.884
2,LC-2-ad,0.676
3,LCLC-97TM1,0.713
4,LCLC-103H,0.808
5,LK-2,0.283
6,LOU-NH91,0.873
7,LU99A,0.39
8,NCI-H358,0.617
9,NCI-H522,0.934
10,NCI-H727,1.19
11,NCI-H1395,0.666
12,NCI-H1648,0.642
13,NCI-H1793,0.784
14,NCI-H1944,0.538
15,NCI-H2170,0.71
16,NCI-H2342,0.728
17,SK-MES-1,1.3
18,SW 900,0.448
